Results: patent US9493484B2, “Heterocyclic compound and use thereof” (Takeda Pharmaceutical Company Limited, priority 2012, dated 2016)

Target: T1, GluR1 flip/stargazin (AMPA receptor) in CHO-K1/GluR1 flip/stargazin-expressing cells (Homo sapiens, UniProt P42261)
T1 construct: expressed in transfected cells; host or cells: CHO-K1
Assay: AMPA receptor function-enhancing activity of compound, using calcium influx as an index
Format: cell-based
Details: test compound final concentration 30 μM with 3 mM glutamic acid, 100% = 3 mM glutamic acid + 300 μM cyclothiazide
From the text: Human GluR1 flip cDNA was amplified by PCR method using forward primer […] (SEQ ID NO: 1) and reverse primer […] (SEQ ID NO: 2) artificially synthesized using human brain-derived cDNA (BD Bioscience) as a template. The amplified product was digested with restriction enzymes EcoRI, NotI (TAKARA SHUZO CO. LTD.) and incorporated into the same site of pcDNA3.1(+) (Invitrogen) to construct pcDNA3.1(+)/human GluR1 flip gene. Human stargazin cDNA was amplified by PCR method using forward primer […] (SEQ ID NO: 3) and reverse primer […] (SEQ ID NO: 4) artificially synthesized using human hippocampus cDNA as a template. The amplified product was digested with restriction enzymes XhoI, BamHI (TAKARA SHUZO CO. LTD.) and incorporated into the same site of pcDNA3.1(−) (Invitrogen) to construct pcDNA3.1 Zeo(−)/human stargazing gene.
CHO-K1 cells passaged in a culture medium (Ham's F12 medium (Invitrogen) added with 10% inactivated fetal bovine serum (Morgate) and penicillin, streptomycin (Invitrogen)) were detached using 0.05% trypsin and 0.53 mM EDTA (Invitrogen) diluted with D-PBS(−). The detached cells were suspended in a culture medium, and recovered by centrifugation at 1,000 rpm. The recovered cells were re-suspended in D-PBS(−) and added into 0.4 cm electroporation cuvette (BioRad). pcDNA3.1(+)/human GluR1 flip gene (5 μg) and pcDNA3.1 Zeo(−)/human stargazin gene (15 μg) were added, and introduced into CHO-K1 cells under the conditions of […], […] and using Gene Pulser II (BioRad). The introduced cells were cultured overnight in a culture medium. The next day, using a selection medium (culture medium added with zeocin (Invitrogen) at 250 μg/mL), the cells were plated in a 96 well plate at 250 cells/well. The clones showing drug resistance were selected, and GluR1 flip/stargazin expression clones were selected by an assay method shown below using calcium influx as an index.
CHO-K1/GluR1 flip/stargazin-expressing cells were plated on a 96 well black bottom transparent plate (coaster) at 3×10^4 cells/well, and cultured for 2 days in a CO2 incubator (SANYO ELECTRIC Co. Ltd.) at 37° C. The medium of the cell plate was removed, a calcium indicator (Calcium4 Assay Kit, Molecular Device) dissolved in a liquid obtained by adding 1.25 mM probenecid (Invitrogen) to an assay buffer (140 mM NaCl, 5 mM KCl, 10 mM Glucose, 2 mM CaCl2, 1 mM MgCl2, 10 mM HEPES, pH 7.4, 0.1% BSA (SIGMA)) was added at 100 μL/well, and left in a CO2 incubator at 37° C. for 1 hr. A cell plate was set on CellLux (PerkinElmer), a mixture (50 μL) of 9 mM glutamic acid (final concentration 3 mM) diluted with an assay buffer and a test compound (test compound final concentration 30 μM) was added, and variation in the amount of fluorescence was measured for 2 min. The variation of fluorescence level of a well added with final concentration 3 mM glutamic acid and 300 μM cyclothiazide (TOCRIS, prepared from 100 mM dimethyl sulfoxide solution) was defined as 100%, the variation of fluorescence level of a well containing final concentration 3 mM glutamic acid and 0.33% dimethyl sulfoxide was defined as 0%, and the activity of the m compound was calculated by the following formula. activity (%)=(X−C)/(T−C)×100 T: variation of fluorescence level of well added with final concentration 3 mM of glutamic acid and 300 μM cyclothiazide C: variation of fluorescence level of well added with final concentration 3 mM of glutamic acid alone X: variation of fluorescence level of well added with final concentration 3 mM of glutamic acid and 30 μM test compound

T1 sequence (P42261 19-906 isoform P42261-2 limits assumed): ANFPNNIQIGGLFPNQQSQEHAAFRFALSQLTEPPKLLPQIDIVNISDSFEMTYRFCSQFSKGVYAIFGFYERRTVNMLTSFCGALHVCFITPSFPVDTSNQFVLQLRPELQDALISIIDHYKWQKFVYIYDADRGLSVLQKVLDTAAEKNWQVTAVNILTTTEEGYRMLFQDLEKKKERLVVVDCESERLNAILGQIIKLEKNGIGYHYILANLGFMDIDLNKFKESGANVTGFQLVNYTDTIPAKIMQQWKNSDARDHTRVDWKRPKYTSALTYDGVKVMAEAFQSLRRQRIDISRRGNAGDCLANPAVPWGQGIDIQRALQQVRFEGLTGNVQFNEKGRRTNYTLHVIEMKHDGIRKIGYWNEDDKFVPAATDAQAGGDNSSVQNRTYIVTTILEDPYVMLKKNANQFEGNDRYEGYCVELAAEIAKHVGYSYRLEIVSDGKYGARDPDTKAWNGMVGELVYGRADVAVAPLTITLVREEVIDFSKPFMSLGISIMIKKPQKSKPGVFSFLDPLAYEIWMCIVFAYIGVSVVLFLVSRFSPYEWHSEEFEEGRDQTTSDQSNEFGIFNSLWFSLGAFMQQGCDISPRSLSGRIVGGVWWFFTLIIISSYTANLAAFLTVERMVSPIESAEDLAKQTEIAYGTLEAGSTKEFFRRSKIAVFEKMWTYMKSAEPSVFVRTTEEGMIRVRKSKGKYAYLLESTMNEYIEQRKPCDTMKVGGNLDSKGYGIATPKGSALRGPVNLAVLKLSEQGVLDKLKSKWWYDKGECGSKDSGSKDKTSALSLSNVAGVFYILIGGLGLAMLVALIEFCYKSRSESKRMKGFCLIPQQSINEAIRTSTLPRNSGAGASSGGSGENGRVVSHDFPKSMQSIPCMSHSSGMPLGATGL
T1 sequence (Q9Y698 whole entry partner): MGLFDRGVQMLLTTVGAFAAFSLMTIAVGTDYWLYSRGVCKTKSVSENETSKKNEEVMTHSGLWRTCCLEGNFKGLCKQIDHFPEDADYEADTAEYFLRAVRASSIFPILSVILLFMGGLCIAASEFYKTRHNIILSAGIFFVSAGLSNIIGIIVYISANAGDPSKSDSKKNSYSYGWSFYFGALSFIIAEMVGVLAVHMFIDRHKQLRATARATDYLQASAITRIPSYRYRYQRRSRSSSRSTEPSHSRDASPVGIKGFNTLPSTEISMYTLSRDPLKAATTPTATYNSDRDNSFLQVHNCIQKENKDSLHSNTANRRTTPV

Compared with `O=S1(=O)CCN2CCCN(c3ccc(Oc4ccc(Cl)cc4)cc3)C2=N1` [Example 45, 9-(4-(4-chlorophenoxy)phenyl)-3,4,6,7,8,9-hexahydropyrimido[2,1-c][1,2,4]thiadiazine 2,2-dioxide], `O=S1(=O)CCN2C(=N1)C1(c3ccc(Oc4ccc(Cl)cc4)cc3)CCC2CC1` [Example 1, 9-(4-(4-chlorophenoxy)phenyl)-3,4,6,7,8,9-hexahydro-6,9-ethanopyrido[2,1-c][1,2,4]thiadiazine 2,2-dioxide] is lower in “activity (%)” value: 77% for the first, 26% for the second.

First: CC(F)(F)c1cccc(Oc2ccc(C34CCC(CC3)N3CCS(=O)(=O)N=C34)cc2)c1 [Example 2, 9-(4-(3-(1,1-difluoroethyl)phenoxy)phenyl)-3,4,6,7,8,9-hexahydro-6,9-ethanopyrido[2,1-c][1,2,4]thiadiazine 2,2-dioxide]
Second: N#Cc1cccc(Oc2ccc(C34CCC(CC3)N3CCS(=O)(=O)N=C34)cc2)c1 [Example 16, 3-(4-(2,2-dioxido-3,4,7,8-tetrahydro-6,9-ethanopyrido[2,1-c][1,2,4]thiadiazin-9(6H)-yl)phenoxy)benzonitrile]
The “activity (%)” value of the first is lower: 74% for the first, 87% for the second.

Going from `O=S1(=O)CCN2C(=N1)C1(c3ccc(Oc4ncccn4)cc3)CCC2CC1` [Example 23, 9-(4-(pyrimidin-2-yloxy)phenyl)-3,4,6,7,8,9-hexahydro-6,9-ethanopyrido[2,1-c][1,2,4]thiadiazine 2,2-dioxide] to `O=S1(=O)CCN2C(=N1)C1(c3ccc(Oc4cc(C(F)(F)F)ccn4)cc3)CCC2CC1` [Example 15, 9-(4-((4-(trifluoromethyl)pyridin-2-yl)oxy)phenyl)-3,4,6,7,8,9-hexahydro-6,9-ethanopyrido[2,1-c][1,2,4]thiadiazine 2,2-dioxide], the “activity (%)” value rises from 61% to 92%.

Going from `Cc1ccc(Oc2ccc(C34CCC(CC3)N3CCS(=O)(=O)N=C34)cc2)cc1C#N` [Example 47, 5-(4-(2,2-dioxido-3,4,7,8-tetrahydro-6,9-ethanopyrido[2,1-c][1,2,4]thiadiazin-9(6H)-yl)phenoxy)-2-methylbenzonitrile] to `O=S1(=O)CCN2C(=N1)C1(c3ccc(OCc4cccc(Cl)c4)cc3)CCC2CC1` [Example 30, 9-(4-((3-chlorobenzyl)oxy)phenyl)-3,4,6,7,8,9-hexahydro-6,9-ethanopyrido[2,1-c][1,2,4]thiadiazine 2,2-dioxide], the “activity (%)” value falls from 87% to 22%.

Compared with `O=S1(=O)CCN2C(=N1)C1(c3ccc(OCC4CCCO4)cc3)CCC2CC1` (stereo not shown) [Example 38, 9-(4-(tetahydrofuran-2-ylmethoxy)phenyl)-3,4,6,7,8,9-hexahydro-6,9-ethanopyrido[2,1-c][1,2,4]thiadiazine 2,2-dioxide], `CC(C)COc1ccc(C23CCC(CC2)N2CCS(=O)(=O)N=C23)cc1` [Example 28, 9-(4-isobutoxyphenyl)-3,4,6,7,8,9-hexahydro-6,9-ethanopyrido[2,1-c][1,2,4]thiadiazine 2,2-dioxide] is higher in “activity (%)” value: 87% for the first, 91% for the second.
